In patent US8563714B2, “Bridged spiro [2.4] heptane derivatives as ALX receptor and/or FPRL2 agonists” (Actelion Pharmaceuticals Ltd., priority 2009, dated 2013):

Columns and labels:
human ALX receptor = target: T1, human ALX receptor (Homo sapiens, UniProt P25090); test: Intracellular calcium measurements (FLIPR), agonistic activity in HEK293-hALXR-Gα16 cells; type: cell-based; settings: Fluo-4 calcium FLIPR, normalized to WKYMVm 10 nM
T1 construct: expressed in transfected cells; host or cells: HEK293 (HEK293-hALXR-Gα16)
T1 sequence (P25090 1-351): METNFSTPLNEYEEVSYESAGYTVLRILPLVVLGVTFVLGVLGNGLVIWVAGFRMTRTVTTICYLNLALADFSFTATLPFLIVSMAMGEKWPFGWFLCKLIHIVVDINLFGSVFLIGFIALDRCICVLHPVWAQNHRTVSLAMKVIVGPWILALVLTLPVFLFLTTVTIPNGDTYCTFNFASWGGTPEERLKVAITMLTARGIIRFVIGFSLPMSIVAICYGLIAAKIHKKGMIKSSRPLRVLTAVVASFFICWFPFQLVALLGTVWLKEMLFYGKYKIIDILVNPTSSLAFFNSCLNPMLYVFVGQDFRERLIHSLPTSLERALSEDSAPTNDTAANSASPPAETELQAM
How it was run: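 HEK293 cells expressing hALXR and Gα16 were loaded with 1 μM Fluo-4 AM and 20 mM HEPES for 60 min at 37°C, then exposed to serially diluted compound. FLIPR fluorescence was read at ex 488/em 540 nm. Baseline-subtracted peak responses were normalized to 10 nM WKYMVm.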

human FPRL2 = target: T2, human FPRL2 (Homo sapiens, UniProt P25089); test: Intracellular calcium measurements (FLIPR), agonistic activity in HEK293-hFPRL2-Gα16 cells; type: cell-based; settings: Fluo-4 calcium FLIPR, normalized to GLY14-Humanin 100 nM
T2 construct: expressed in transfected cells; host or cells: HEK293 (HEK293-hFPRL2-Gα16)
T2 sequence (P25089 1-353): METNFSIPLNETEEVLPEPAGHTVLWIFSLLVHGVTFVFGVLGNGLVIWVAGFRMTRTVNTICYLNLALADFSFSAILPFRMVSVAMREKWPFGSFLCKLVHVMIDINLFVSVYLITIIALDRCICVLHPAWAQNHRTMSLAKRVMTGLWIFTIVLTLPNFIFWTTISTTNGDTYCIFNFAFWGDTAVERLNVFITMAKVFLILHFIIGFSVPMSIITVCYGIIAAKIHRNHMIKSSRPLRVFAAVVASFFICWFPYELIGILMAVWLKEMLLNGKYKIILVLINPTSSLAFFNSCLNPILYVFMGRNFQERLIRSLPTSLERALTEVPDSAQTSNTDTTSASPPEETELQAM
How it was run: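 Peak values after baseline subtraction are expressed relative to 100 nM Gly14-Humanin; compounds diluted in assay buffer from 10 mM DMSO stocks.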

SMILES | EC50 (human ALX receptor) [nM] | EC50 (human FPRL2) [nM]
O=C(NCCCCN1CCCC1)[C@H]1[C@H](C(=O)Nc2cnc(Br)c(F)c2)[C@@H]2CC[C@H]1C21CC1 [Example 402, (5R)—N^5-(2-Bromo-3-fluoro-pyridin-5-yl)-(6R)—N^6-(4-pyrrolidino-butyl)-(4S,7R)-[4,7-ethylene-spiro[2.4]heptane]-5,6-dicarboxamide] | 349 | 66
O=C(NCCO)[C@H]1[C@H](C(=O)Nc2ncc(Br)s2)[C@@H]2CC[C@H]1C21CC1 [Example 403, (5R)—N^5-(5-Bromothiazol-2-yl)-(6R)—N^6-(2-hydroxyethyl)-(4S,7R)-[4,7-ethylene-spiro[2.4]heptane]-5,6-dicarboxamide] | 158 | 21400
O=C(NCCCO)[C@H]1[C@H](C(=O)Nc2ncc(Br)s2)[C@@H]2CC[C@H]1C21CC1 [Example 404, (5R)—N^5-(5-Bromothiazol-2-yl)-(6R)—N^6-(3-hydroxypropyl)-(4S,7R)-[4,7-ethylene-spiro[2.4]heptane]-5,6-dicarboxamide] | 96 | 10000
O=C(NCCCCO)[C@H]1[C@H](C(=O)Nc2ncc(Br)s2)[C@@H]2CC[C@H]1C21CC1 [Example 405, (5R)—N^5-(5-Bromothiazol-2-yl)-(6R)—N^6-(4-hydroxybutyl)-(4S,7R)-[4,7-ethylene-spiro[2.4]heptane]-5,6-dicarboxamide] | 80 | 7840
CC(C)(CO)NC(=O)[C@H]1[C@H](C(=O)Nc2ncc(Br)s2)[C@@H]2CC[C@H]1C21CC1 [Example 406, (5R)—N^5-(5-Bromothiazol-2-yl)-(6R)—N^6-(2-methyl-3-hydroxyprop-2-yl)-(4S,7R)-[4,7-ethylene-spiro[2.4]heptane]-5,6-dicarboxamide] | 333 | 15200
O=C(NCCOCCO)[C@H]1[C@H](C(=O)Nc2ncc(Br)s2)[C@@H]2CC[C@H]1C21CC1 [Example 407, (5R)—N^5-(5-Bromothiazol-2-yl)-(6R)—N^6-(2-(2-hydroxyethoxy)ethyl)-(4S,7R)-[4,7-ethylene-spiro[2.4]heptane]-5,6-dicarboxamide] | 11 | 9230
O=C(N[C@H]1CC[C@H](O)CC1)[C@H]1[C@H](C(=O)Nc2ncc(Br)s2)[C@@H]2CC[C@H]1C21CC1 [Example 408, (5R)—N^5-(5-Bromothiazol-2-yl)-(6R)—N^6-(4-hydroxy-cyclohexyl)-(4S,7R)-[4,7-ethylene-spiro[2.4]heptane]-5,6-dicarboxamide] | 69 | 16300
O=C(NCC1(O)CCCCC1)[C@H]1[C@H](C(=O)Nc2ncc(Br)s2)[C@@H]2CC[C@H]1C21CC1 [Example 409, (5R)—N^5-(5-Bromothiazol-2-yl)-(6R)—N^6-[(1-hydroxy-cyclohexyl)methyl]-(4S,7R)-[4,7-ethylene-spiro[2.4]heptane]-5,6-dicarboxamide] | 129 | 9190
O=C(Nc1ncc(Br)s1)C1C(C(=O)NC2CCNC2)C2CCC1C21CC1 [Example 412, (5R)—N^5-(5-Bromothiazol-2-yl)-(6R)—N^6-(pyrrolidin-3-yl)-(4S,7R)-[4,7-ethylene-spiro[2.4]heptane]-5,6-dicarboxamide] | 8.9 | 1020
CNCCNC(=O)[C@H]1[C@H](C(=O)Nc2ncc(Br)s2)[C@@H]2CC[C@H]1C21CC1 [Example 413, (5R)—N^5-(5-Bromothiazol-2-yl)-(6R)—N^6-(2-(N-methylamino)-ethyl)-(4S,7R)-[4,7-ethylene-spiro[2.4]heptane]-5,6-dicarboxamide] | 13 | 2110
CNCCCNC(=O)[C@H]1[C@H](C(=O)Nc2ncc(Br)s2)[C@@H]2CC[C@H]1C21CC1 [Example 414, (5R)—N^5-(5-Bromothiazol-2-yl)-(6R)—N^6-(3-(N-methylamino)-propyl)-(4S,7R)-[4,7-ethylene-spiro[2.4]heptane]-5,6-dicarboxamide] | 14 | 773
O=C(NC1CCCNC1)[C@H]1[C@H](C(=O)Nc2ncc(Br)s2)[C@@H]2CC[C@H]1C21CC1 (stereo partly drawn) [Example 415, (5R)—N^5-(5-Bromothiazol-2-yl)-(6R)—N^6-(piperidin-3-yl)-(4S,7R)-[4,7-ethylene-spiro[2.4]heptane]-5,6-dicarboxamide] | 9.1 | 354
O=C(NCC1CCCN1)[C@H]1[C@H](C(=O)Nc2ncc(Br)s2)[C@@H]2CC[C@H]1C21CC1 (stereo partly drawn) [Example 416, (5R)—N^5-(5-Bromothiazol-2-yl)-(6R)—N^6-[(pyrrolidin-2-yl)-methyl]-(4S,7R)-[4,7-ethylene-spiro[2.4]heptane]-5,6-dicarboxamide] | 8.3 | 479
O=C(NCC1CCCCN1)[C@H]1[C@H](C(=O)Nc2ncc(Br)s2)[C@@H]2CC[C@H]1C21CC1 (stereo partly drawn) [Example 417, (5R)—N^5-(5-Bromothiazol-2-yl)-(6R)—N^6-[(piperidin-2-yl)-methyl]-(4S,7R)-[4,7-ethylene-spiro[2.4]heptane]-5,6-dicarboxamide] | 2.1 | 262
O=C(NCC1CCCNC1)[C@H]1[C@H](C(=O)Nc2ncc(Br)s2)[C@@H]2CC[C@H]1C21CC1 (stereo partly drawn) [Example 418, (5R)—N^5-(5-Bromothiazol-2-yl)-(6R)—N^6-[(piperidin-3-yl)-methyl]-(4S,7R)-[4,7-ethylene-spiro[2.4]heptane]-5,6-dicarboxamide] | 0.45 | 339
O=C(NC1CNC1)[C@H]1[C@H](C(=O)Nc2ncc(Br)s2)[C@@H]2CC[C@H]1C21CC1 [Example 419, (5R)—N^5-(5-Bromothiazol-2-yl)-(6R)—N^6-(azetidin-3-yl)-(4S,7R)-[4,7-ethylene-spiro[2.4]heptane]-5,6-dicarboxamide] | 57 | 2290
